The results in this text go back to patent publication US9149489B2, “Inhibitors of glycolysis useful in the treatment of brain tumors” (Board of Regents, University of Texas System, priority 2006, dated 2015).

Each structure is given as a SMILES string. Read-outs that look alike come from different tables or passages of the source.

In series [1] the test system is U87 glioblastoma cells. The series is described as follows: U87 cell viability assay with co-treatment by D-glucose, D-mannose or D-galactose (competition). Format: cell-based, human. The conditions noted are these: for Viability Protection by D-Mannose Under Hypoxia (IC50 shift) / Viability Protection by D-Mannose Under Normoxia (IC50 shift): co-treatment with 0.1 mM of D-mannose; for Viability Protection by D-Galactose Under Hypoxia (IC50 shift) / Viability Protection by D-Galactose Under Normoxia (IC50 shift): co-treatment with 5 mM of D-galactose; for Viability Protection by D-Glucose Under Hypoxia (IC50 shift) / Viability Protection by D-Glucose Under Normoxia (IC50 shift): co-treatment with 5 mM of D-glucose. The procedure:
(§1) Cell viability experiments were carried out in U87 glioblastoma cells with 8000 cells/well in flat bottom 96 well plates. The cells were grown in low glucose (5.4 mM) DMEM/F12 media with 10% FBS and antibiotics. 24 hours after plating, cells were treated with increasing concentration of 2-deoxy-2,2-difluoro-D-arabino-hexopyranose (DFG) for 72 hours in normoxic (21% O2) or hypoxic (0.1% O2) conditions. In addition, to test the ability of monosachamides to compete with DFG in inhibiting glycolysis and glycosylation, cells were treated with increasing concentrations of glucose, mannose or galactose. The experiments were carried out in duplicate (n=2).
(§2) U87 human glioma cancer cells were obtained from the American Type Culture Collection (Manassas, Va.) and maintained in a humidified atmosphere containing 5% CO2 at 37° C. Cells were routinely cultured in DMEM/F12 medium (Invitrogen Corp., Grand Island, N.Y.) supplemented with 10% heat inactivated fetal bovine serum (Hyclone Laboratories Inc., Logan, Utah), 50 IU/ml penicillin and […] streptomycin from GIBCO (Invitrogen). Cell viability experiments were carried out in U87 cells with 8000 cells/well in flat bottom 96 well plates. The cells were grown in low glucose (5.4 mM) DMEM/F12 media supplied with 10% FBS and antibiotics. 24 hours after plating, cells were treated with increasing concentration (1 to 10 mM) of 2-difluoro-D-glucose (DFG) for 72 hours in normoxic (21% O2) or hypoxic (approximately 0.1% O2) conditions. To test the competing ability of glucose, galactose and mannose with DFG, the cells were also treated with increasing concentration of the glucose (5, 10, and 20 mM), galactose (5, 10, and 20 mM) or mannose (0.1, 1, and 5 mM). The experiments were carried out in duplicate (n=2). After 72 hours of treatment, inhibition of cellular proliferation was assessed by the MTT assay. Absorbance was read at a wavelength of 570 nm using a V Max Micro plate reader by Molecular Devices, Inc. (Sunnyvale, Calif.). The cytoctoxicity of 2-DFG was calculated by normalization to the 100% viability of the control (untreated cells) and presented as percent control.

The test system of series [2] is U87 glioblastoma cells. The series is described as follows: U87 cell viability (MTT) assay under normoxia and hypoxia. As to conditions: for IC50: Homo sapiens, U-87 MG, 72 h. Format: cell-based, human. On the procedure: as §1, §2
In series [3] the test system is U87 cells. The series is described as follows: Transmission electron microscopy / detection of autophagosomes. Format: cell-based, human. On the procedure:
FIGS. 16a through 16d provides electron micrographs of 2-DFG induced autophagy in U87 cells (5 mM, 72 h treatment, 5.6 mM low glucose media).
(§3) To test the ability of the 2-DFG to induce autophagic cell death, we monitored the increase in acidic vesicular organelles (AVO) using acridine orange staining in U87 cells treated with increasing concentrations of 2-DFG for 72 hours under hypoxia and normoxia. […] Therefore, targeting the energetic metabolism of cancer cells and the autophagic survival response using inhibitors of glycolysis is a promising therapeutic approach for the treatment of cancers that are dependent on glycolysis for survival.

The subject of series [4] is orthotopic glioma model. The series is described as follows: Orthotopic glioma model, antitumor activity in vivo. As to conditions: compared with temozolomide.
Series [5] concerns U87 cells. The series is described as follows: Acridine orange staining of acidic vesicular organelles (AVO), autophagy. The format is cell-based, human. The conditions noted are these: 72 hours, increasing concentrations, hypoxia and normoxia. On the procedure:
FIGS. 14a through 14f provide the quantification of 2-DFG induced autophagy in U87 glioma cells after 72 h of normoxia treatment in 5.6 mM low glucose media using acridine orange-acid vesicular organelles (AVO) straining assay.
FIGS. 15a through 15f provide the quantification of 2-DFG induced autophagy in U87 glioma cells after 72 h of hypoxia treatment in 5.6 mM low glucose media using acridine orange-acid vesicular organelles (AVO) straining assay.
as §3

In series [6] the test system is U87 cells. Kind of series: Cell cycle analysis. The format is cell-based, human. As to conditions: 5 mM, 72 h.
Where [7] appears, read: hypoxia (0.1% O2), 72 hours, low glucose media, read-out: Inhibition under Hypoxia (IC50, U87 cell viability).
Where [8] appears, read: normoxia (21% O2), 72 hours, low glucose media, read-out: Inhibition under Normoxia (IC50, U87 cell viability).

As to `O=CC[C@@H](O)[C@H](O)[C@H](O)CO` [2-DG, 2-Deoxy-D-glucose, reference compound], in series [1], the “Viability Protection by D-Mannose Under Hypoxia (IC50 shift)” value is “++ (~1.5-2 mM IC50 shift after co-treatment with 0.1 mM of D-mannose)”, the “Viability Protection by D-Galactose Under Hypoxia (IC50 shift)” value is on record as “− (0-0.5 mM IC50 shift after co-treatment with 5 mM of D-galactose.)”, the “Viability Protection by D-Glucose Under Hypoxia (IC50 shift)” value is recorded as “+++ (>5 mM IC50 shift after co-treatment with 5 mM of D-glucose)” and the “Viability Protection by D-Mannose Under Normoxia (IC50 shift)” value is “+++ (>5 mM IC50 shift after co-treatment with 0.1 mM of D-mannose)”. Moreover, in series [1], the “Viability Protection by D-Galactose Under Normoxia (IC50 shift)” value was “− (0-0.5 mM IC50 shift after co-treatment with 5 mM of D-galactose.)” and the “Viability Protection by D-Glucose Under Normoxia (IC50 shift)” value is “+ (~1 mM IC50 shift after co-treatment with 5 mM of D-glucose)”. Also, in series [2] (setting [7]), the IC50 (in general, the midpoint of a concentration-inhibition curve) is ≥ 1.8 mM. Moreover, the IC50 in series [2] (setting [8]) was ≥ 1.8 mM. For the same compound, in series [3] (U87 Glioblastoma cells, preliminary studies), the “Stimulation of autophagy (detection of autophagosomes after treatment)” value is on record as “able to stimulate the process of autophagy”. Moreover, in series [4], the “Antitumor activity in vivo” value was “comparable to that of temozolomide”.
For `O=C[C@H](F)[C@@H](O)[C@H](O)[C@H](O)CO` [2-FG, 2-fluoro-2-deoxy-D-glucose], in series [4], the “Antitumor activity in vivo” value was “comparable to that of temozolomide”.
Same read-out and setting: under `O=C[C@@H](F)[C@@H](O)[C@H](O)[C@H](O)CO` [2-FM, 2-fluoro-2-deoxy-D-mannose] stands “comparable to that of temozolomide”.
Take `OC[C@H]1OC(O)C(F)(F)[C@@H](O)[C@@H]1O` (stereo partly drawn) [DFG, 2-Deoxy-2,2-difluoro-D-arabino-hexopyranose]: in series [5], the “Acidic vesicular organelles (AVO), acridine orange staining” value is recorded as “concentration dependent increase in acridine orange staining”. In series [1], the “Viability Protection by D-Mannose Under Hypoxia (IC50 shift)” value was “− (0-0.5 mM IC50 shift after co-treatment with 0.1 mM of D-mannose)”, the “Viability Protection by D-Galactose Under Hypoxia (IC50 shift)” value is given as “− (0-0.5 mM IC50 shift after co-treatment with 5 mM of D-galactose.)”, the “Viability Protection by D-Glucose Under Hypoxia (IC50 shift)” value was “++ (~1.5-2 mM IC50 shift after co-treatment with 5 mM of D-glucose)” and the “Viability Protection by D-Mannose Under Normoxia (IC50 shift)” value is reported as “+ (~1 mM IC50 shift after co-treatment with 0.1 mM of D-mannose)”. Also, in series [1], the “Viability Protection by D-Galactose Under Normoxia (IC50 shift)” value is given as “− (0-0.5 mM IC50 shift after co-treatment with 5 mM of D-galactose.)” and the “Viability Protection by D-Glucose Under Normoxia (IC50 shift)” value is listed as “+ (~1 mM IC50 shift after co-treatment with 5 mM of D-glucose)”. Besides, the half-inhibitory concentration (IC50) in series [2] (setting [7]) was in the range of 1.5 to 1.8 mM. The IC50 in series [2] (hypoxic conditions (0.1% O2), read-out: IC50 (cytotoxicity in U87 cells)) stood at 1.2 mM. Further, the IC50 in series [2] (setting [8]) was ≥ 1.8 mM. Besides, the IC50 in series [2] (normoxic conditions (21% O2), read-out: IC50 (cytotoxicity in U87 cells)) worked out at 2.9 mM. The “Concentration giving substantial inhibition of cellular growth” value in series [2] (hypoxic conditions) is “lower than 4 mM”. The “Concentration required for substantial inhibition of cellular growth” value in series [2] (normoxic conditions) was “above 6 mM”. Moreover, the “Autophagosomes by electron microscopy” value in series [3] (5 mM, 72 h treatment, normoxia) was “extensive presence of autophagosomes”. Also, in series [6], the “Cell cycle distribution: G2/M phase” value was “significant increase in G2/M phase” and the “Cell cycle distribution: Sub G0/G1 phase” value is reported as “no significant increase in Sub G0/G1 phase”.
